Tests used:
Vero = experiment: Cytotoxicity against African green monkey Vero cells at 50 uM; assay type: toxicity, cell-based; conditions: chlorocebus sabaeus
SARS-CoV-2 [1] = experiment: Antiviral activity against SARS-CoV-2 MT020880 infected in African green monkey Vero cells measured after 48 hrs by spread assay; assay type: functional, organism-based, Severe acute respiratory syndrome coronavirus 2
SARS-CoV-2 [2] = experiment: Antiviral activity against SARS-CoV-2 MT020880 infected in African green monkey Vero cells assessed as inhibition of viral entry preincubated for 1 hr; assay type: functional, organism-based, Severe acute respiratory syndrome coronavirus 2
SARS-CoV-2 [3] = experiment: Antiviral activity against SARS-CoV-2 MT020880 infected in African green monkey Vero cells assessed as inhibition of viral entry preincubated for 1 hr at 10 uM; assay type: functional
[4] = Severe acute respiratory syndrome coronavirus 2, MT020880, Vero

Compound	Activity (Vero)	IC50 (SARS-CoV-2 [1]; Severe acute respiratory syndrome coronavirus 2, MT020880, Vero, 48 h)	IC50 (SARS-CoV-2 [2]; [4])	inhibition at 10 µM (SARS-CoV-2 [3]; [4])	IC50 (SARS-CoV-2 [1]; vero)	IC50 (SARS-CoV-2 [2]; vero)	inhibition (SARS-CoV-2 [3]; Severe acute respiratory syndrome coronavirus 2)
CC(C)(C)c1ccc(CN2CCN(C[C@H](O)[C@@H](N)Cc3ccccc3)CC2)cc1	Non-Toxic	8.46 µM	7.28 µM	90%	–	–	–
IVERMECTIN [listing 1 of 2 here]	Toxic	–	–	–	5.53 µM	4.97 µM	–
IVERMECTIN [listing 2 of 2 here]	–	–	–	–	–	–	90%

Reference: ChEMBL document CHEMBL5126496, “A novel compound active against SARS-CoV-2 targeting uridylate-specific endoribonuclease (NendoU/NSP15): in silico and in vitro investigations” (RSC Med Chem, 2021)
